Assays:
SK-OV-3 = assay: NCI anticancer screening, Ovarian Cancer SK-OV-3; assay type: cell-based; conditions: Homo sapiens; SK-OV-3, 10 μM; read-out: % Growth Inhibition (GI %)
Description: (§1) The compound has been processed according to standard method NCI-60 Human Tumor Cell Lines Screen for organic compound at development therapeutic program (DTP). Requests for access to this national resource can be submitted online at: […]

NCI-H23 = assay: NCI anticancer screening, Non-Small Cell Lung Cancer NCI-H23; assay type: cell-based; conditions: Homo sapiens; NCI-H23, 10 μM; read-out: % Growth Inhibition (GI %)
Procedure, shortened: (§2)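 Human tumor cell lines of the NCI-60 set were exposed to the compound according to the standard DTP screening method.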

OVCAR-8 = assay: NCI anticancer screening, Ovarian Cancer OVCAR-8; assay type: cell-based; conditions: Homo sapiens; OVCAR-8, 10 μM; read-out: % Growth Inhibition (GI %)
Procedure, shortened: as §2

IGROV1 = assay: NCI anticancer screening, Ovarian Cancer IGROV1; assay type: cell-based; conditions: Homo sapiens, IGROV-1; IGROV1, 10 μM; read-out: % Growth Inhibition (GI %)
Procedure, shortened: as §2

NCI-H460 = assay: NCI anticancer screening, Non-Small Cell Lung Cancer NCI-H460; assay type: cell-based; conditions: Homo sapiens; NCI-H460, 10 μM; read-out: % Growth Inhibition (GI %)
Procedure, shortened: as §2

SNB-19 = assay: NCI anticancer screening, CNS Cancer SNB-19; assay type: cell-based; conditions: Homo sapiens; SNB-19, 10 μM; read-out: % Growth Inhibition (GI %)
Procedure, shortened: as §2

RXF 393 = assay: NCI anticancer screening, Renal Cancer RXF 393; assay type: cell-based; conditions: Homo sapiens; RXF 393, 10 μM; read-out: % Growth Inhibition (GI %)
Procedure, shortened: as §2

EKVX = assay: NCI anticancer screening, Non-Small Cell Lung Cancer EKVX; assay type: cell-based; conditions: Homo sapiens, read-out: % Growth Inhibition (GI %)
Procedure, shortened: as §2

UACC-62 = assay: NCI anticancer screening, Melanoma UACC-62; assay type: cell-based; conditions: Homo sapiens; UACC-62, 10 μM; read-out: % Growth Inhibition (GI %)
Procedure, shortened: as §2

K-562 = assay: NCI anticancer screening, Leukemia K-562; assay type: cell-based; conditions: Homo sapiens, K562; K-562, 10 μM; read-out: % Growth Inhibition (GI %)
Procedure, shortened: as §2

NCI-H226 = assay: NCI anticancer screening, Non-Small Cell Lung Cancer NCI-H226; assay type: cell-based; conditions: Homo sapiens; NCI-H226, 10 μM; read-out: % Growth Inhibition (GI %)
Procedure, shortened: as §2

DU-145 = assay: NCI anticancer screening, DU-145; assay type: cell-based; conditions: Homo sapiens; DU-145, 10 μM; read-out: % Growth Inhibition (GI %)
Procedure, shortened: as §2

NCI-H322M = assay: NCI anticancer screening, Non-Small Cell Lung Cancer NCI-H322M; assay type: cell-based; conditions: Homo sapiens, read-out: % Growth Inhibition (GI %)
Procedure, shortened: as §2

COLO 205 = assay: NCI anticancer screening, Colon Cancer COLO 205; assay type: cell-based; conditions: Homo sapiens; COLO 205, 10 μM; read-out: % Growth Inhibition (GI %)
Description: as §1

T-47D = assay: NCI anticancer screening, Breast Cancer T-47D; assay type: cell-based; conditions: Homo sapiens, T47D, read-out: % Growth Inhibition (GI %)
Procedure, shortened: as §2

[1] = target: T1, Mdm2 (residues 1–118 T47W) (Homo sapiens, UniProt Q00987, T47W); assay: MDM2 binding by microscale thermophoresis (MST)
T1 construct: Mdm2 (residues 1–118 T47W; 500 nM)
T1 sequence (Q00987 1-118 T47W): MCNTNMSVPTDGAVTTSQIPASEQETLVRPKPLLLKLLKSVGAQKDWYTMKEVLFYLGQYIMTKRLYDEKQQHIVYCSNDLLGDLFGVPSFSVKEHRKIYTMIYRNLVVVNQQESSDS
Protocol: MST is a complementary biophysical assay to assess the binding of a small molecule to its receptor. […] Experiments were performed in 50 mM phosphate buffer at pH 7.4 containing 150 mM NaCl, 5 mM DTT, and 5% DMSO. […] Kd values and uncertainties were calculated using the MO Affinity Analysis software.

LOX IMVI = assay: NCI anticancer screening, Melanoma LOX IMVI; assay type: cell-based; conditions: Homo sapiens, read-out: % Growth Inhibition (GI %)
Procedure, shortened: as §2

SR = assay: NCI anticancer screening, Leukemia SR; assay type: cell-based; conditions: Homo sapiens, read-out: % Growth Inhibition (GI %)
Procedure, shortened: as §2

KM12 = assay: NCI anticancer screening, Colon Cancer KM12; assay type: cell-based; conditions: Homo sapiens; KM12, 10 μM; read-out: % Growth Inhibition (GI %)
Procedure, shortened: as §2

OVCAR-4 = assay: NCI anticancer screening, Ovarian Cancer OVCAR-4; assay type: cell-based; conditions: Homo sapiens; OVCAR-4, 10 μM; read-out: % Growth Inhibition (GI %)
Procedure, shortened: as §2

M14 = assay: NCI anticancer screening, Melanoma M14; assay type: cell-based; conditions: Homo sapiens; M14, 10 μM; read-out: % Growth Inhibition (GI %)
Procedure, shortened: as §2

PC-3 cells = assay: MTT assay anticancer activity, PC-3; assay type: cell-based; conditions: Homo sapiens, PC-3, 5 µM, mean ± SEM, read-out: growth inhibition percentage of PC-3
Description: MTT method was done as described above.

MDA-MB 231 cells = conditions: for inhibition: 5 µM
Protocol: Anticancer effect of the above-mentioned compounds was assayed using three human cancer cell lines. Triple negative breast cancer cell line (MDA-MB 231) and prostate cancer cell line (PC3) were cultured in DMEM (Lonza, USA) supplemented with 10% FBS. All cancer cells (4x10^3 cells/well) were seeded in sterile 96-well plates. After 24h, serial concentrations of the tested compounds were incubated with three cancer cell lines for 72 h at 37 °C in 5% CO2 incubator. […] The half maximal inhibitory concentration (IC50) values were calculated using the Graphpad Instat software.

NF-κB = assay: Real time PCR NF-κB gene expression in MDA-MB 231 cells; conditions: treated MDA-MB 231 cells compared to untreated cells
BT-549 = assay: NCI anticancer screening, Breast Cancer BT-549; assay type: cell-based; conditions: Homo sapiens; BT-549, 10 μM; read-out: % Growth Inhibition (GI %)
Procedure, shortened: as §2

SF-539 = assay: NCI anticancer screening, CNS Cancer SF-539; assay type: cell-based; conditions: Homo sapiens; SF-539, 10 μM; read-out: % Growth Inhibition (GI %)
Procedure, shortened: as §2

SF-295 = assay: NCI anticancer screening, CNS Cancer SF-295; assay type: cell-based; conditions: Homo sapiens; SF-295, 10 μM; read-out: % Growth Inhibition (GI %)
Procedure, shortened: as §2

RPMI-8226 = assay: NCI anticancer screening, Leukemia RPMI-8226; assay type: cell-based; conditions: Homo sapiens; RPMI-8226, 10 μM; read-out: % Growth Inhibition (GI %)
Procedure, shortened: as §2

SK-MEL-28 = assay: NCI anticancer screening, Melanoma SK-MEL-28; assay type: cell-based; conditions: Homo sapiens; SK-MEL-28, 10 μM; read-out: % Growth Inhibition (GI %)
Procedure, shortened: as §2

| Structure (SMILES) | inhibition at 10 µM (SK-OV-3) [%] | inhibition at 10 µM (NCI-H23) [%] | inhibition at 10 µM (OVCAR-8) [%] | inhibition at 10 µM (IGROV1) [%] | inhibition at 10 µM (NCI-H460) [%] | inhibition at 10 µM (SNB-19) [%] | inhibition at 10 µM (RXF 393) [%] | inhibition at 10 µM (EKVX) [%] | inhibition at 10 µM (UACC-62) [%] | inhibition at 10 µM (K-562) [%] | inhibition at 10 µM (NCI-H226) [%] | inhibition at 10 µM (DU-145) [%] | inhibition at 10 µM (NCI-H322M) [%] | inhibition at 10 µM (COLO 205) [%] | inhibition at 10 µM (T-47D) [%] | Kd [1] [µM] | inhibition at 10 µM (LOX IMVI) [%] | inhibition at 10 µM (SR) [%] | inhibition at 10 µM (KM12) [%] | inhibition at 10 µM (OVCAR-4) [%] | also measured |
| --- | --- | --- | --- | --- | --- | --- | --- | --- | --- | --- | --- | --- | --- | --- | --- | --- | --- | --- | --- | --- | --- |
| Cc1ccc([C@@H]2C3CSCN3[C@]3(C(=O)Nc4ccccc43)[C@H]2C(=O)c2nc3ccccc3[nH]2)cc1 (mixture of isomers) [Compound 6d, (3S,6′R)-6'-(1H-Benzo [d]imidazole-2-carbonyl)-7'-(p-tolyl)-3′,6′,7′,7a′-tetrahydro-1′H-spiro [indoline-3.5′-pyrrolo [1,2-c]thiazol]-2-one] | 94.2 | 91.2 | 95.9 | 75 | 84.5 | 80.3 | 57.1 | 71.6 | 78 | 81.6 | 73.9 | 106 | 83.1 | 81.9 | 68.8 | 17.4 | 82 | 102 | 75.4 | 62.4 | inhibition at 10 µM (M14): 74.7%; inhibition at 5 µM (PC-3 cells): > 50%; IC50 (MDA-MB 231 cells): 4.3 ± 0.137 µM; inhibition (MDA-MB 231 cells): 51.7 ± 1.3%; expression level of NF-κB (NF-κB): downregulating; inhibition at 10 µM (BT-549): 96.2%; inhibition at 10 µM (SF-539): 81.9%; inhibition at 10 µM (SF-295): 59%; inhibition at 10 µM (RPMI-8226): 80.3%; inhibition at 10 µM (SK-MEL-28): 98.8% |
| O=C(c1nc2ccccc2[nH]1)[C@H]1[C@H](c2ccccc2)C2CSCN2[C@]12C(=O)Nc1ccccc12 (mixture of isomers) [Compound 6a, (3S,6′R)-6'-(1H-benzo [d]imidazole-2-carbonyl)-7′-phenyl-3′,6′,7′,7a′-tetrahydro-1′H-spiro [indoline-3.5′-pyrrolo [1,2-c]thiazol]-2-one] | 99.1 | 104 | 96.1 | 91.4 | 106 | 97 | 101 | 106 | 95.7 | 105 | 95.3 | 115 | 98.1 | 99.9 | 88 | 87.7 | 98.7 | 94.2 | 105 | 108 | inhibition at 10 µM (M14): 107%; inhibition at 5 µM (PC-3 cells): > 50%; IC50 (MDA-MB 231 cells): 2.97 ± 0.047 µM; inhibition (MDA-MB 231 cells): 55.5 ± 0.761%; expression level of NF-κB (NF-κB): downregulating; inhibition at 10 µM (BT-549): 102%; inhibition at 10 µM (SF-539): 95.1%; inhibition at 10 µM (SF-295): 104%; inhibition at 10 µM (RPMI-8226): 111%; inhibition at 10 µM (SK-MEL-28): 103% |
